Literature values as cited in US20090069433A1 (priority 2007, published 2009).

Conditions: pure capsaicinoid; background statement

COc1cc(CNC(=O)CCCC/C=C/C(C)C)ccc1O [Capsaicin]
pungency (Scoville scale): 15,000,000-16,000,000 Scoville units
